Experimental data: PubChem BioAssay (NCI)
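Test compounds were applied to cells in 96-well plates for 48 hours at 5 doses. GI50 marks 50% less growth. Definition used: TGI = concentration required for complete inhibition of growth.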

What was measured:
Experiment in all cases: NCI anticancer screen, dose series, 48 h
CAKI-1 renal = test system: CAKI-1 renal
HCT-15 colon = test system: HCT-15 colon
UO-31 renal = test system: UO-31 renal
EKVX NSCLC = test system: EKVX NSCLC
RPMI-8226 leukemia = test system: RPMI-8226 leukemia
A549 NSCLC = test system: A549 NSCLC
SNB-19 CNS = test system: SNB-19 CNS
UACC-62 melanoma = test system: UACC-62 melanoma
NCI-H226 lung = test system: NCI-H226 lung
SN12C renal = test system: SN12C renal
LOX IMVI melanoma = test system: LOX IMVI melanoma
HCC-2998 colon = test system: HCC-2998 colon
SR leukemia = test system: SR leukemia
SNB-75 CNS = test system: SNB-75 CNS
K-562 leukemia = test system: K-562 leukemia
SW-620 colon = test system: SW-620 colon
A498 renal = test system: A498 renal
DU-145 prostate = test system: DU-145 prostate
NCI-H522 lung = test system: NCI-H522 lung
786-0 renal = test system: 786-0 renal
RXF 393 renal = test system: RXF 393 renal
OVCAR-8 ovarian = test system: OVCAR-8 ovarian
OVCAR-5 ovarian = test system: OVCAR-5 ovarian
HOP-92 NSCLC = test system: HOP-92 NSCLC
SK-MEL-28 melanoma = test system: SK-MEL-28 melanoma
ACHN renal = test system: ACHN renal
NCI-H460 lung = test system: NCI-H460 lung
NCI-H23 lung = test system: NCI-H23 lung
UACC-257 melanoma = test system: UACC-257 melanoma
KM12 colon = test system: KM12 colon
HCT-116 colon = test system: HCT-116 colon
MCF7 breast = test system: MCF7 breast
MDA-MB-435 = test system: MDA-MB-435
CCRF-CEM leukemia = test system: CCRF-CEM leukemia
T-47D breast = test system: T-47D breast
U251 CNS = test system: U251 CNS
HS 578T breast = test system: HS 578T breast
BT-549 breast = test system: BT-549 breast
HT29 colon = test system: HT29 colon
MOLT-4 leukemia = test system: MOLT-4 leukemia
MDA-MB-231 breast = test system: MDA-MB-231 breast
OVCAR-4 ovarian = test system: OVCAR-4 ovarian
TK-10 renal = test system: TK-10 renal
IGROV1 ovarian = test system: IGROV1 ovarian
SF-539 CNS = test system: SF-539 CNS
SF-295 CNS = test system: SF-295 CNS
M14 melanoma = test system: M14 melanoma
SK-MEL-2 melanoma = test system: SK-MEL-2 melanoma
MALME-3M melanoma = test system: MALME-3M melanoma
NCI/ADR-RES ovarian = test system: NCI/ADR-RES ovarian
SK-MEL-5 melanoma = test system: SK-MEL-5 melanoma
SF-268 CNS = test system: SF-268 CNS
HOP-62 NSCLC = test system: HOP-62 NSCLC

SMILES: COc1cc(/C=N/n2cnc3oc(-c4ccccc4)cc3c2=N)cc(CN2CCCCC2)c1O
- GI50 (CAKI-1 renal): 1.43 µM
- TGI (CAKI-1 renal): 2.77 µM
- GI50 (HCT-15 colon): 1.77 µM
- TGI (HCT-15 colon): 3.49 µM
- GI50 (UO-31 renal): 1.39 µM
- TGI (UO-31 renal): 2.92 µM
- GI50 (EKVX NSCLC): 1.89 µM
- TGI (EKVX NSCLC): 3.68 µM
- GI50 (RPMI-8226 leukemia): 2.13 µM
- TGI (RPMI-8226 leukemia): 5.38 µM
- GI50 (A549 NSCLC): 1.7 µM
- TGI (A549 NSCLC): 3.45 µM
- GI50 (SNB-19 CNS): 1.98 µM
- TGI (SNB-19 CNS): 3.73 µM
- GI50 (UACC-62 melanoma): 1.83 µM
- TGI (UACC-62 melanoma): 3.35 µM
- GI50 (NCI-H226 lung): 2.01 µM
- TGI (NCI-H226 lung): 4.55 µM
- GI50 (SN12C renal): 1.55 µM
- TGI (SN12C renal): 3.21 µM
- GI50 (LOX IMVI melanoma): 0.444 µM
- TGI (LOX IMVI melanoma): 1.52 µM
- GI50 (HCC-2998 colon): 1.85 µM
- TGI (HCC-2998 colon): 3.34 µM
- GI50 (SR leukemia): 0.247 µM
- TGI (SR leukemia): 0.687 µM
- GI50 (SNB-75 CNS): 1.39 µM
- TGI (SNB-75 CNS): 2.79 µM
- GI50 (K-562 leukemia): 0.201 µM
- TGI (K-562 leukemia): 0.458 µM
- GI50 (SW-620 colon): 1.91 µM
- TGI (SW-620 colon): 3.76 µM
- GI50 (A498 renal): 1.73 µM
- TGI (A498 renal): 3.28 µM
- GI50 (DU-145 prostate): 1.8 µM
- TGI (DU-145 prostate): 3.32 µM
- GI50 (NCI-H522 lung): 2.01 µM
- TGI (NCI-H522 lung): 4.51 µM
- GI50 (786-0 renal): 1.48 µM
- TGI (786-0 renal): 3.03 µM
- GI50 (RXF 393 renal): 1.41 µM
- TGI (RXF 393 renal): 3.15 µM
- GI50 (OVCAR-8 ovarian): 1.95 µM
- TGI (OVCAR-8 ovarian): 4.7 µM
- GI50 (OVCAR-5 ovarian): 1.89 µM
- TGI (OVCAR-5 ovarian): 3.46 µM
- GI50 (HOP-92 NSCLC): 1.48 µM
- TGI (HOP-92 NSCLC): 3.28 µM
- GI50 (SK-MEL-28 melanoma): 1.63 µM
- TGI (SK-MEL-28 melanoma): 3.25 µM
- GI50 (ACHN renal): 1.36 µM
- TGI (ACHN renal): 2.67 µM
- GI50 (NCI-H460 lung): 1.43 µM
- TGI (NCI-H460 lung): 3.08 µM
- GI50 (NCI-H23 lung): 1.81 µM
- TGI (NCI-H23 lung): 3.57 µM
- GI50 (UACC-257 melanoma): 1.93 µM
- TGI (UACC-257 melanoma): 3.88 µM
- GI50 (KM12 colon): 1.81 µM
- TGI (KM12 colon): 3.39 µM
- GI50 (HCT-116 colon): 0.31 µM
- TGI (HCT-116 colon): 0.959 µM
- GI50 (MCF7 breast): 0.512 µM
- TGI (MCF7 breast): 1.99 µM
- GI50 (MDA-MB-435): 1.64 µM
- TGI (MDA-MB-435): 3.06 µM
- GI50 (CCRF-CEM leukemia): 0.324 µM
- TGI (CCRF-CEM leukemia): 1.25 µM
- GI50 (T-47D breast): 2.04 µM
- TGI (T-47D breast): 4.62 µM
- GI50 (U251 CNS): 1.83 µM
- TGI (U251 CNS): 3.6 µM
- GI50 (HS 578T breast): 1.83 µM
- TGI (HS 578T breast): 4.36 µM
- GI50 (BT-549 breast): 2.12 µM
- TGI (BT-549 breast): 4.19 µM
- GI50 (HT29 colon): 0.489 µM
- TGI (HT29 colon): 1.79 µM
- GI50 (MOLT-4 leukemia): 2.25 µM
- TGI (MOLT-4 leukemia): 6.57 µM
- GI50 (MDA-MB-231 breast): 1.64 µM
- TGI (MDA-MB-231 breast): 3.35 µM
- GI50 (OVCAR-4 ovarian): 1.75 µM
- TGI (OVCAR-4 ovarian): 3.67 µM
- GI50 (TK-10 renal): 1.91 µM
- TGI (TK-10 renal): 3.46 µM
- GI50 (IGROV1 ovarian): 1.69 µM
- TGI (IGROV1 ovarian): 3.35 µM
- GI50 (SF-539 CNS): 1.75 µM
- TGI (SF-539 CNS): 3.33 µM
- GI50 (SF-295 CNS): 1.83 µM
- TGI (SF-295 CNS): 3.39 µM
- GI50 (M14 melanoma): 1.56 µM
- TGI (M14 melanoma): 3.18 µM
- GI50 (SK-MEL-2 melanoma): 1.79 µM
- TGI (SK-MEL-2 melanoma): 3.66 µM
- GI50 (MALME-3M melanoma): 1.79 µM
- TGI (MALME-3M melanoma): 3.72 µM
- GI50 (NCI/ADR-RES ovarian): 2.14 µM
- TGI (NCI/ADR-RES ovarian): 4.91 µM
- GI50 (SK-MEL-5 melanoma): 1.76 µM
- TGI (SK-MEL-5 melanoma): 3.17 µM
- GI50 (SF-268 CNS): 1.97 µM
- TGI (SF-268 CNS): 4.03 µM
- GI50 (HOP-62 NSCLC): 1.79 µM
- TGI (HOP-62 NSCLC): 3.77 µM
